Measurements taken from ChEMBL document CHEMBL3112432, “Synthesis of 5α-cholestan-6-one derivatives and their inhibitory activities of NO production in activated microglia: discovery of a novel neuroinflammation inhibitor” (Bioorg Med Chem Lett, 2014).

What was measured:
[1] = Antiinflammatory activity in LPS-stimulated mouse BV2 cells assessed as inhibition of NO production at 40 uM after 24 hrs by Griess method relative to control; type: functional; conditions: BV-2, 24 h
[2] = Cytotoxicity against mouse BV2 cells assessed as cell viability at 40 uM after 24 hrs by MTT assay relative to control; type: cell-based, BV-2; conditions: read-out: Activity

## COC(=O)CC[C@@H](C)[C@H]1CC[C@H]2[C@@H]3CC(=O)[C@H]4C[C@@H](Cl)CC[C@]4(C)[C@H]3CC[C@]12C
[1]
  inhibition at 40 µM: 35.9%
[2]
  viability at 24 h, 40 µM: 79%

## COC(=O)CC[C@@H](C)[C@H]1CC[C@H]2[C@@H]3[C@H](F)C(=O)[C@H]4C[C@H](O)CC[C@]4(C)[C@H]3CC[C@]12C
[1]
  inhibition at 40 µM: 47.2%
[2]
  viability at 24 h, 40 µM: 73.7%

## COC(=O)CC[C@@H](C)[C@H]1CC[C@H]2[C@@H]3CC(=O)[C@H]4CC(=O)CC[C@]4(C)[C@H]3CC[C@]12C
[1]
  inhibition at 40 µM: 48.2%
[2]
  viability at 24 h, 40 µM: 78%

## COC(=O)CC[C@@H](C)[C@H]1CC[C@H]2[C@@H]3CC(=O)[C@H]4C[C@@H](F)CC[C@]4(C)[C@H]3CC[C@]12C
[1]
  inhibition at 40 µM: 43.5%
[2]
  viability at 24 h, 40 µM: 84.1%

## COC(=O)CC[C@@H](C)[C@H]1CC[C@H]2[C@@H]3[C@H](F)C(=O)[C@H]4C[C@@H]5O[C@@H]5C[C@]4(C)[C@H]3CC[C@]12C
[1]
  inhibition at 40 µM: 32.6%
[2]
  viability at 24 h, 40 µM: 97.2%

## COC(=O)CC[C@@H](C)[C@H]1CC[C@H]2[C@@H]3CC(=O)[C@H]4C[C@@H](O)CC[C@]4(C)[C@H]3CC[C@]12C
[1]
  inhibition at 40 µM: 18.1%
[2]
  viability at 24 h, 40 µM: 27.8%

## C=C[C@@H](C)[C@H]1CC[C@H]2[C@@H]3[C@H](O)C(=O)[C@H]4C[C@H](O)[C@@H](F)C[C@]4(C)[C@H]3CC[C@]12C
[1]
  inhibition at 40 µM: 92.7%
[2]
  viability at 24 h, 40 µM: 55.9%

## COC(=O)CC[C@@H](C)[C@H]1CC[C@H]2[C@@H]3CC(=O)[C@H]4C[C@H](O)[C@@H](O)C[C@]4(C)[C@H]3CC[C@]12C
[1]
  inhibition at 40 µM: 44.9%
[2]
  viability at 24 h, 40 µM: 79.5%

## COC(=O)CC[C@@H](C)[C@H]1CC[C@H]2[C@@H]3[C@H](F)C(=O)[C@H]4C[C@@H](O)CC[C@]4(C)[C@H]3CC[C@]12C
[1]
  inhibition at 40 µM: 43.9%
[2]
  viability at 24 h, 40 µM: 23.1%

## COC(=O)CC[C@@H](C)[C@H]1CC[C@H]2[C@@H]3[C@H](F)C(=O)[C@H]4C[C@H](O)[C@@H](O)C[C@]4(C)[C@H]3CC[C@]12C
[1]
  inhibition at 40 µM: 68.1%
[2]
  viability at 24 h, 40 µM: 50.8%

## C=C[C@@H](C)[C@H]1CC[C@H]2[C@@H]3[C@H](O)C(=O)[C@H]4C[C@H](O)CC[C@]4(C)[C@H]3CC[C@]12C
[1]
  inhibition at 40 µM: 69.6%
[2]
  viability at 24 h, 40 µM: 76.6%

## C=C[C@@H](C)[C@H]1CC[C@H]2[C@@H]3CC(=O)[C@H]4C[C@H](O)[C@H](O)C[C@]4(C)[C@H]3CC[C@]12C
[1]
  inhibition at 40 µM: 65.7%
[2]
  viability at 24 h, 40 µM: 48.2%

## C=C[C@@H](C)[C@H]1CC[C@H]2[C@@H]3[C@H](F)C(=O)[C@H]4C[C@H](O)[C@@H](F)C[C@]4(C)[C@H]3CC[C@]12C
[1]
  inhibition at 40 µM: 63.8%
[2]
  viability at 24 h, 40 µM: 86.8%

## C=C[C@@H](C)[C@H]1CC[C@H]2[C@@H]3[C@H](O)C(=O)[C@H]4C[C@@H](O)CC[C@]4(C)[C@H]3CC[C@]12C
[1]
  inhibition at 40 µM: 59.5%
[2]
  viability at 24 h, 40 µM: 81.8%

## C[C@H]([C@H](O)CO)[C@H]1CC[C@H]2[C@@H]3[C@H](O)C(=O)[C@H]4C[C@@H](F)CC[C@]4(C)[C@H]3CC[C@]12C
[1]
  inhibition at 40 µM: 91.9%
[2]
  viability at 24 h, 40 µM: 78.6%

## COC(=O)CC[C@@H](C)[C@H]1CC[C@H]2[C@@H]3[C@H](F)C(=O)[C@H]4C[C@H](O)[C@H](O)C[C@]4(C)[C@H]3CC[C@]12C
[1]
  inhibition at 40 µM: 72.4%
[2]
  viability at 24 h, 40 µM: 69.9%

## COC(=O)CC[C@@H](C)[C@H]1CC[C@H]2[C@@H]3CC(=O)[C@H]4C[C@@H](Br)CC[C@]4(C)[C@H]3CC[C@]12C
[1]
  inhibition at 40 µM: 41.5%
[2]
  viability at 24 h, 40 µM: 81.5%
